In assay [1] the target is T1, Pin1 (Homo sapiens, UniProt Q13526). Conditions: Pinch B J, et al. (2020); read-out: IC50 value as reported by a fluorescence polarization assay; cited from earlier work.
Assay [2] addresses T1, Pin1. Nature of the assay: DELFIA displacement assay (displacement of biotinylated D-peptide from 6His-Pin1). More on the design: human Pin1 (residues 1-163); made in house; host or cells: E. coli BL21 (DE3) gold pLysS. The assay is classed as binding. The text has this:
(§1) Important to the success of structure activity relations studies, robust biochemical, biophysical, and cell-based assays were implemented that enabled rapid and iterative evaluations of test Pin1 targeting agents. First, the DELFIA (Dissociation-enhanced lanthanide fluorescent immunoassay) assay platform was used to derive a robust heterogeneous assay to monitor the ability of test agents to displace the binding between Pin1 and the D-Peptide (Table 1), which was obtained in a biotinylated form (FIG. 10). […] Second, for an orthogonal biophysical assay denaturation thermal shift measurements were used. Pin1 was incubated with vehicle control (buffer with 1% DMSO), or test agents at protein: ligand ratio of 1:2 (20 μM protein-40 μM compound) for 10 min at 10° C. in the presence of the fluorescent dye SYPRO Orange. The samples were gradually exposed to increasing temperature (linear gradient from 10° C. to 95° C.), causing the protein to unfold. This unfolding allowed the fluorescent dye to bind to the protein's exposed hydrophobic residues, resulting in an increase in fluorescence. The thermal shift assay measures the protein's melting temperature (Tm), which is the temperature at which the protein denatures by 50%. Ligands can affect a protein target to thermal denaturation, which could manifest in a positive or negative shift in the protein denaturation temperature (ΔTm) (Bai N, Roder H, Dickson A, & Karanicolas J (2019) Scientific Reports 9; and Kranz J K & Schalk-Hihi C (2011) Fragment-Based Drug Design: Tools, Practical Approaches, and Examples 493:277-298). Using these two assays, a series of commercially available Pin1 inhibitors were profiled (Table 1). The non-covalent agent D-peptide resulted only moderately active, with an IC50 value of ˜3 μM that closely resembled the dissociation constant for this agent determined via isothermal titration calorimetry, and the ˜ 3 μM IC50 value as reported by a fluorescence polarization assay (Pinch B J, et al. (2020) Nat Chem Biol 16(9):979-987). […] (Table 1) was observed.
For the reported covalent agents such as sulfopin (Dubiella C, et al. (2021) Nat Chem Biol 17(9):954-963), BJP-07-017-3 (Pinch B J, et al. (2020) Nat Chem Biol 16(9):979-987), or KPT-6566 (Campaner E, et al. (2017) Nat Commun 8:15772), a 6-h pre-incubation period was included in the DELFIA assay to allow the covalent reaction to take place. For those agents, IC50 values that fell in the low nanomolar range were observed, consistent with what was reported previously for those compounds. […] To make those determinations in a broader panel of cancer cell lines three pancreatic cancer cell lines, BxPC3, MIA-PaCa-2, and PANC-1, the breast cancer cell line MDA-MB-231, the prostate cancer cell line PC3, and the non-small cell lung cancer cell line A549 were chosen. Each cell line represents various states of KRAS activating mutations (for example BxPC3 is wt-KRAS, while MIAPaCa2 carries the KRAS(G12C) mutation, and the PANC-1 the KRAS(G12D) (Miquel M, Zhang S, & Pilarsky C (2021) Front Cell Dev Biol 9:748631), A549 is KRAS(G12S) (Wang H, et al. (2019) EBioMedicine 49:106-117), MDA-MB-231 is KRAS(G13D) (Kim R K, et al. (2015) Exp Mol Med 47(1):e137), PC3 is wt-KRAS (Bouali S, et al. (2009) Oncol Rep 21(3):731-735). Pin1 protein levels in these cell lines were established using a specific Pin1 antibody in western blot analyses (FIG. 1A). The data confirmed that all these selected human cancer cell lines expressed a significant level of Pin1 (FIG. 1A).
Each well of 96-well streptavidin-coated plates (PerkinElmer) was incubated with 100 μL of 200 nM biotinylated D-peptide for 2 h and washed 3 times with a wash solution (PerkinElmer). Subsequently, a mixture containing Pin1, and a serial dilution of the test compounds were pre-incubated for 6 h. Eu-N1-labeled anti-6x-His antibody (PerkinElmer, 1:2000) was then added to this mixture and further incubated in the biotinylated D-peptide-bound plates for another 2 h. […]

For assay [3], the target named is T1, Pin1. Nature of the assay: Denaturation thermal shift assay (SYPRO Orange). On the set-up: human Pin1 (residues 1-163); made in house; host or cells: E. coli BL21 (DE3) gold pLysS. It is filed as binding.
Description: as §1
Thermal shift assays for Pin1 alone and in the presence of the inhibitors were obtained with a BioRad CFX Connect Real-Time PCR Detection System. Each data point was collected in quadruplicate. Each sample was prepared using buffer 50 mM Phosphate pH 7.5, 150 mM NaCl, 1% DMSO. Protein: ligand ratio used was 1:2 (20 μM protein-40 μM compound), and SYPRO Orange was used. Incubation of the Pin1 protein with the compounds was performed at 10° C. for 10 min. Samples were then heated from 10 to 95° C. with heating increments of 0.05° C., over 30 min. Fluorescence intensity was measured within the excitation/emission ranges 470-505/540-700 nm.

Assay [4] has as its target T1, Pin1. The experiment in a line: Pin1 degradation in MIA PaCa-2 cells (western blot). It is filed as cell-based. The settings on record: after 24 h (FIG. 14C). As for the experimental part:
BxPC3, MIA PaCa-2, PANC-1, MDA-MB-231, and PC3 were obtained from the American Type Culture Collection (ATCC) and A549 NucLight Red cells were purchased from Essen Bioscience. BxPC3 and PC3 cells were cultured in RPMI (Corning) while PANC-1 cells were cultured in DMEM (Corning). MIA PaCa-2 cells were also cultured in DMEM, but with the addition of 2.5% horse serum. A549 NucLight cells were cultured in a Ham's F-12 nutriend mixture with GlutaMAX-1 (Gibco). All of the culture media were supplemented with 10% FBS. MDA-MB-231 cells were nuclear-labeled red (MDA-MB-231 NucLight Red) with the IncuCyte NucLight lentivirus reagent (Essen Bioscience) according to the manufacturer's protocol and were cultured in DMEM supplemented with 10% FBS and 1 μg/mL puromycin. Cells were all maintained at 37° C. in a humidified incubator with 5% CO2.
At the end of the treatments, cells were lysed with a lysis buffer containing 20 mM Tris, pH 7.4, 120 mM NaCl, 1% Triton X-100, 0.5% sodium deoxycholate, 0.1% SDS, 1% IGEPAL, 5 mM EDTA, protease inhibitor cocktail and PhosSTOP (Sigma-Aldrich). Lysates were then centrifuged at 16,000×g for 20 min at 4° C. and supernatants were collected. Protein concentrations were determined using the Pierce BCA Protein Assay Kit (ThermoFisher Scientific) according to the manufacturer's instruction. […]
A general note: Immunoblotting shows a protein as a band on a membrane.

For assay [5], the target named is T1, Pin1. The settings on record: Pu W, et al. (2018); read-out: dissociation constant by isothermal titration calorimetric measurements; cited from earlier work. (In ITC the heat of successive injections is recorded.)

Read-outs that look alike come from different tables or passages of the source. *1 amine or outer side, *2 acyl side, *3 side chain or, on linkers, in order; H or OH if unused. Where a SMILES comes first, the peptide text is derived from it. [ ]: non-standard residue; d: D form. The star is where a group is joined. ξ: configuration not given here. Trp(5-OMe) = COc1ccc2[nH]cc(C[C@H](N)C(=O)O)c2c1; X1 = CC(OP(=O)(O)O)[C@@H](N[*:1])C(=O)[*:2]; 2Nal = N[C@@H](Cc1ccc2ccccc2c1)C(=O)O; Pip = O=C(O)[C@@H]1CCCCN1; ξPip = O=C(O)C1CCCCN1; ClAc = O=C(CCl)*

Data on three molecules can be found in patent US20250296955A1, “PIN1 TARGETING COMPOUNDS AND DEGRADERS AND METHODS THEREOF” (The Regents of the University of California, priority 2024, published 2025).

Broadly, the IC50 is the concentration at which inhibition is half-maximal. As a reminder, the ΔTm is the change in melting temperature against a reference sample.

T1 sequence (Q13526 whole entry, the tested form may be a part): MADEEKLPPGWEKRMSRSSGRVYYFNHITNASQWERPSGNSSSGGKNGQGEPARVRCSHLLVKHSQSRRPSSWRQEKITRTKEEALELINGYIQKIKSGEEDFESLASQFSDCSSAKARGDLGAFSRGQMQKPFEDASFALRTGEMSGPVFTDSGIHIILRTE

As for `CC(=O)N[C@@H](Cc1ccccc1)C(=O)N[C@@H](C(=O)N1CCCCC1C(=O)N[C@@H](Cc1ccc2ccccc2c1)C(=O)N[C@@H](CCC(N)=O)C(N)=O)C(C)OP(=O)(O)O` (stereo partly drawn) [158A1, reference compound] (Ac-F[X1][ξPip][2Nal]Q-NH2), the IC50 in assay [1] is approximately 3000 nM; in assay [2], approximately 3000 nM; in assay [2] (Table 1, 6-h pre-incubation followed by 2-h incubation, ± SD from duplicates) it was 2910 ± 103 nM. For the same molecule, the “ΔTm (° C.) 30 min” value in assay [3] (Table 1, Protein:compound 1:2, 20X Sypro Orange, 50 mM phosphate pH 7.5, 150 mM NaCl, 3% DMSO, ± SE of four replicates) amounted to 3.40 ± 0.16 °C. In addition, the ΔTm in assay [3] (running text and figure legends) turned out to be 3.4 °C.

For the molecule `COc1ccc2[nH]cc(C[C@H](NC(=O)[C@@H]3CCCCN3C(=O)[C@H](Cc3ccccc3)NC(=O)CCl)C(N)=O)c2c1` [158F10] (ClAc-Phe-[Pip]-[Trp(5-OMe)]-NH2), the IC50 in assay [2] (Table 3, ± SD from duplicates) stood at 126 ± 5 nM. For the same molecule, the “degradation of Pin1 (western blot)” value in assay [4] is “degradation of Pin1”. For the same molecule, the “ΔTm (° C.)” value in assay [3] (Table 3, single transition, ± SE of four replicates) is −10.16 ± 0.07 °C.

In the case of `Nc1nc(OCc2ccc(CNC(=O)C(F)(F)F)cc2)c2nc[nH]c2n1` [API-1], in assay [5], the Kd was 2900 nM.
